Experimental data from PMC6472066, “Characterisation of three novel α-L-arabinofuranosidases from a compost metagenome” (BMC Biotechnology, 2019).

Columns and labels:
Experiment in all cases: pNP release at […] nm, Michaelis-Menten fit
AFase-H4 = system: T1, AFase-H4; format: biochemical, uncultured bacterium (compost metagenome); conditions: at the enzyme's pH and temperature optima (pH 5.0, 60 °C), 1 min; read-out: KM in mM (Std. error)
T1 construct: full-length ORF, 489 residues, 55 kDa, no signal peptide; C-terminal His tag (pET21a, NdeI-XhoI); E. coli BL21(DE3); homo-hexamer

AFase-E3 = system: T2, AFase-E3; format: biochemical, metagenome: high temperature compost; conditions: at the enzyme's pH and temperature optima (pH 4.0, 60 °C), 1 min; read-out: KM in mM (Std. error)
T2 construct: full-length ORF, 510 residues, 58 kDa; C-terminal His tag (pET21a, NdeI-HindIII); E. coli BL21(DE3); homo-hexamer

AFase-D3 = system: T3, AFase-D3; format: biochemical, metagenome: high temperature compost; conditions: at the enzyme's pH and temperature optima (pH 4.5, 25 °C), 1 min; abstract gives KM range up to 0.43 mM; read-out: KM in mM (Std. error)
T3 construct: full-length ORF, 494 residues, 56 kDa; C-terminal His tag (pET21a, NdeI-XhoI); E. coli BL21(DE3); homo-hexamer; primer-encoded N-terminus MNNVVINV

O=[N+]([O-])c1ccc(O[C@@H]2O[C@@H](CO)[C@H](O)[C@H]2O)cc1 [pNP-α-L-arabinofuranoside]
Km (AFase-H4): 0.31 mM | Km (AFase-E3): 0.33 mM | Km (AFase-D3): 0.38 mM
